This test has as its target Rho kinase (fused protein of bovine Rho kinase catalyst region and glutathione S-transferase) (Bos taurus, UniProt Q28021). Kind of test: Rho kinase inhibitory activity (phosphorylation of S6 231–239 substrate, γ32P-ATP). Type of test: biochemical. To be noted: concentration inhibiting substrate phosphorylation by 50%. The procedure:
This permits the substrate to be labeled with the radioisotope.
Thereafter, the substrate was adsorbed to a filter paper. ATP was washed away with a phosphoric acid solution, and the amount of the phosphorylated substrate was then measured with a liquid scintillation counter.
Rho kinase (fused protein of bovine Rho kinase catalyst region and glutathione S-transferase), sequence (Q28021 92-354 limits assumed): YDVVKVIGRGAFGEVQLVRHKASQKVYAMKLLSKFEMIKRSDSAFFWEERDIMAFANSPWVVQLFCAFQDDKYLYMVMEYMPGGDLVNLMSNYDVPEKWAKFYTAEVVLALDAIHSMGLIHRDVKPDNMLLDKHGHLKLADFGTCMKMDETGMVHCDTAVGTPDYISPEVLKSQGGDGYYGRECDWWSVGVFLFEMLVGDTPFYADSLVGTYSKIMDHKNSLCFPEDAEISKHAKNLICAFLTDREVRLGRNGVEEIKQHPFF
A word on the IC50: it is the midpoint of a concentration-inhibition curve. High values mean a need for much substance, low ones inhibition by little substance. Compound `O=C(Nc1ccc2[nH]ncc2c1)Nc1c(Cl)cccc1Cl` [Example 13, N-(2,6-Dichlorophenyl)-N′-(1H-5-indazolyl)urea] had an IC50 of 980 nM.

The compound `Clc1cccc(CN2CCCC(Nc3ccc4[nH]ncc4c3)C2)c1` (stereo not drawn) [Example 162, N-[1-(3-Chlorobenzyl)-3-piperidyl]-N-(1H-5-indazolyl)amine] had a half-maximal inhibitory concentration (IC50) of 19 nM.

Take `CCOC(=O)c1cc(Cl)c(OCC(=O)Nc2ccncc2)c(Cl)c1` [Example 26, Ethyl 3,5-dichloro-4-[2-oxo-2-(4-pyridylamino)ethoxy]benzoate]: 1030 nM corresponded to half-maximal inhibition (IC50). The compound `O=[N+]([O-])c1cccc(CN2CCC(Nc3ccc4[nH]ncc4c3)C2)c1` (stereo not drawn) [Example 158, N-(1H-5-Indazolyl)-N-[1-(3-nitrobenzyl)tetrahydro-1H-3-pyrrolyl]amine] yielded an IC50 of 5 nM. As for `O=C(NCc1c(F)ccc(F)c1F)Nc1ccc2[nH]ncc2c1` [Example 110, N-(1H-5-Indazolyl)-N′-(2,3,6-trifluorobenzyl)urea], the figure is 195 nM; as for `O=C(NCc1c(F)c(F)c(F)c(F)c1F)Nc1ccncc1` [Example 97, N-(2,3,4,5,6-Pentafluorobenzyl)-N′-(4-pyridyl)urea], 2100 nM; as for `O=C(NCc1c(F)ccc(F)c1F)Nc1ccncc1` [Example 108, N-(Pyridyl)-N′-(2,3,6-trifluorobenzyl)urea], 3800 nM. In the case of `O=C(NCc1c(Cl)cccc1Cl)Nc1cc2c(cc1Cl)C(=O)NC2=O` [Example 81, N-(6-Chloro-1,3-dioxo-2,3-dihydro-1H-5-isoindolyl)-N′-(2,6-dichlorobenzyl)urea] it was 54 nM; in that of `CCCNC(=O)Nc1ccc2c(c1)C(=O)NC2=O` [Example 74, N-(1,3-Dioxo-2,3-dihydro-1H-5-isoindolyl)-N′-propylurea], 8300 nM; in that of `O=C(/C=C/c1cccc(O)c1)Nc1ccc2[nH]ncc2c1` [Example 36, N1-(1H-5-Indazolyl)-(E)-3-(3-hydroxyphenyl)-2-propeneamide], 600 nM.

For the compound `O=C(Nc1ccncc1)Nc1ccc(F)cc1C(F)(F)F` [Example 59, N-[4-Fluoro-2-(trifluoromethyl)phenyl]-N′-(4-pyridyl)urea], the IC50 came to 7270 nM. In the case of `O=C(NCc1cccc2ccccc12)Nc1ccc2c(c1)C(=O)NC2=O` [Example 85, N-(1,3-Dioxo-2,3-dihydro-1H-5-isoindolyl)-N′-(1-naphthylmethyl)urea] it was 180 nM; in that of `c1cncc(CN2CCC(Nc3ccc4[nH]ncc4c3)CC2)c1` [Example 132, N-(1H-5-Indazolyl)-N-[1-(3-pyridylmethyl)-4-piperidyl]amine], 603 nM.

As for `Nc1cccc(NC(=O)Nc2ccc3c(c2)C(=O)NC3=O)c1` [Example 79], the IC50 is 8570 nM. As to `O=C(NCc1ccccc1[N+](=O)[O-])Nc1ccc2c(c1)C(=O)NC2=O` [Example 86, N-(1,3-Dioxo-2,3-dihydro-1H-5-isoindolyl)-N′-(2-nitrobenzyl)urea], the IC50 is 900 nM. Consider `O=C(CC1CCCCC1)Nc1ccc2[nH]ncc2c1` [Example 34, N1-(1H-5-Indazoyl)-1-cyclohexylacetamide], for which the IC50 was 870 nM. In the case of `O=C(Nc1ccncc1)Nc1c(F)cccc1F` [Example 8, N-(2,6-Difluorophenyl)-N′-(4-pyridyl)urea], half-maximal inhibition (IC50) required 2000 nM. As for `O=C(NCc1ccccc1Cl)Nc1ccc2[nH]ncc2c1` [Example 104, N-(2-Chlorobenzyl)-N′-(1H-5-indazolyl)urea], the figure is 240 nM; as for `O=[N+]([O-])c1ccc(CN2CCCC(Nc3ccc4[nH]ncc4c3)C2)cc1` (stereo not drawn) [Example 169, N-(1H-5-Indazolyl)-N-[1-(4-nitrobenzyl)-3-piperidyl]amine], 87 nM; as for `O=C(NCc1c(Cl)ccc(Cl)c1Cl)Nc1ccncc1` [Example 55, N′-(4-Pyridyl)-N-(2,3,6-trichlorobenzyl)urea], 1040 nM. In the case of `COc1cc(CNC(=O)Nc2ccc3[nH]ncc3c2)ccc1O` [Example 113, N-(4-Hydroxy-3-methoxybenzyl)-N′-(1H-5-indazolyl)urea] it was 492 nM; in that of `O=C(Nc1ccc2[nH]ncc2c1)C1CCCCC1` [Example 33], 470 nM. In the case of `O=C(NCc1cccc2ccccc12)Nc1ccc2[nH]ncc2c1` [Example 107, N-(1H-5-Indazolyl)-N′-(1-naphthylmethyl)urea] it was 470 nM. `Cc1ccc(CN2CCCC(Nc3ccc4[nH]ncc4c3)C2)cc1` (stereo not drawn) [Example 167, N-(1H-5-Indazolyl)-N-[1-(4-methylbenzyl)-3-piperidyl]amine] came in with an IC50 of 9 nM.

`FC(F)(F)c1ccc(CN2CCC(Nc3ccc4[nH]ncc4c3)CC2)cc1` [Example 118, N-(1H-5-Indazolyl)-N-{1-[4-(trifluoromethyl)benzyl]-4-piperidyl}amine] gave an IC50 of 275 nM. As for `O=C(NCc1c(Cl)ccc(Cl)c1Cl)Nc1ccc2c(c1)C(=O)NC2=O` [Example 89, N-(1,3-Dioxo-2,3-dihydro-1H-5-isoindolyl)-N′-(2,3,6-trichlorobenzyl)urea], the figure is 300 nM; as for `COC(=O)c1ccc(CN2CCC(Nc3ccc4[nH]ncc4c3)CC2)cc1` [Example 148, Methyl 4-{[4-(1H-5-indazolylamino)piperidino]methyl}benzoate], 166 nM. As for `O=C(COc1c(F)cc(F)cc1F)Nc1ccncc1` [Example 28, N1-(4-Pyridyl)-2-(2,4,6-trifluorophenoxy)acetamide], the figure is 8110 nM; as for `O=C(Nc1ccncc1)Nc1c(Cl)cccc1Cl` [Example 9, N-(2,6-Dichlorophenyl)-N′-(4-pyridyl)urea], 850 nM.

Consider `Clc1ccccc1CN1CCC(Nc2ccc3[nH]ncc3c2)C1` (stereo not drawn) [Example 151, N-[1-(2-Chlorobenzyl)tetrahydro-1H-3-pyrrolyl]-N-(1H-5-indazolyl)amine], for which the IC50 is 45 nM. As for `O=C(NCc1ccccc1)Nc1ccc2c(c1)C(=O)NC2=O` [Example 73, N-Benzyl-N′-(1,3-dioxo-2,3-dihydro-1H-5-isoindolyl)urea], the figure is 410 nM; as for `c1ccc(Oc2cccc(CN3CCC(Nc4ccc5[nH]ncc5c4)CC3)c2)cc1` [Example 123, N-(1H-5-Indazolyl)-N-[1-(3-phenoxybenzyl)-4-piperidyl]amine], 220 nM; as for `O=C(NCc1ccccc1[N+](=O)[O-])Nc1ccncc1` [Example 93, N-(2-Nitrobenzyl)-N′-(4-pyridyl)urea], 12500 nM. With `O=C(NCc1c(F)ccc(F)c1F)Nc1ccc2c(c1)C(=O)NC2=O` [Example 109, N-(1,3-Dioxo-2,3-dihydro-1H-5-isoindolyl)-N′-(2,3,6-trifluorobenzyl)urea], the IC50 was 161 nM.

Compound `O=C(NCc1ccccc1)Nc1ccncc1` [Example 92, N-Benzyl-N′-(4-pyridyl)urea] came in with an IC50 of 10200 nM. With `O=C(Nc1ccncc1)Nc1c(Cl)cc(C(F)(F)F)cc1Cl` [Example 63, N-[2,6-Dichloro-4-(trifluoromethyl)phenyl]-N′-(4-pyridyl)urea], it took 2500 nM to reach half-maximal inhibition (IC50). As for `O=C(NCC1CCCCC1)Nc1ccc2[nH]ncc2c1` [Example 105, N-Cyclohexylmethyl-N′-(1H-5-indazolyl)urea], 390 nM corresponded to half-maximal inhibition (IC50). The compound `Clc1ccc(CN2CCC(Nc3ccc4[nH]ncc4c3)CC2)cc1Cl` [Example 114, N-[1-(3,4-Dichlorobenzyl)-4-piperidyl]-N-(1H-5-indazolyl)amine] displayed a 50% inhibitory concentration (IC50) of 329 nM. As for `O=C(NCc1c(F)cc(F)cc1F)Nc1ccc2[nH]ncc2c1` [Example 103, N-(1H-5-Indazolyl)-N′-(2,4,6-trifluorobenzyl)urea], the figure is 260 nM; as for `COc1cc(/C=C/C(=O)Nc2ccc3[nH]ncc3c2)ccc1O` [Example 40, N1-(1H-5-Indazolyl)-(E)-3-(4-hydroxy-3-methoxyphenyl)-2-propeneamide], 231 nM; as for `Oc1ccc(CN2CCC(Nc3ccc4[nH]ncc4c3)CC2)cc1` [Example 145, 4-{[4-(1H-5-Indazolylamino)piperidino]methyl}phenol], 290 nM. As for `O=C(/C=C/c1ccc(O)c(O)c1)Nc1ccc2[nH]ncc2c1` [Example 38, N1-(1H-5-Indazolyl)-(E)-3-(3,4-dihydroxyphenyl)-2-propeneamide], the figure is 107 nM; as for `O=[N+]([O-])c1ccc(CN2CCC(Nc3ccc4[nH]ncc4c3)CC2)cc1` [Example 141, N-(1H-5-Indazolyl)-N-[1-(4-nitrobenzyl)-4-piperidyl]amine], 661 nM; as for `O=C(NCc1c(F)cc(F)cc1F)Nc1ccncc1` [Example 77, N-(4-Pyridyl)-N′-(2,4,6-trifluorobenzyl)urea], 4070 nM. As to `c1ccc(COc2ccc(CN3CCC(Nc4ccc5[nH]ncc5c4)CC3)cc2)cc1` [Example 142, N-{1-[4-(Benzyloxy)benzyl]-4-piperidyl}-N-(1H-5-indazolyl)amine], the IC50 worked out at 655 nM.

As to `O=C(Nc1ccncc1)Nc1c(F)cc(F)cc1Br` [Example 57], the IC50 stood at 1110 nM. In the case of `Clc1ccccc1CN1CCC(Nc2ccc3[nH]ncc3c2)CC1` [Example 134, N-[1-(2-Chlorobenzyl)-4-piperidyl]-N-(1H-5-indazolyl)amine] it was 436 nM; in that of `COc1ccc(CN2CCC(Nc3ccc4[nH]ncc4c3)C2)cc1` (stereo not drawn) [Example 156, N-(1H-5-Indazolyl)-N-[1-(4-methoxybenzyl)tetrahydro-1H-3-pyrrolyl]amine], 2 nM; in that of `COc1cccc(CN2CCC(Nc3ccc4[nH]ncc4c3)CC2)c1` [Example 119, N-(1H-5-Indazolyl)-N-[1-(3-methoxybenzyl)-4-piperidyl]amine], 383 nM. As for `Fc1cccc(Cl)c1CN1CCC(Nc2ccc3[nH]ncc3c2)CC1` [Example 150, N-[1-(2-Chloro-6-fluorobenzyl)-4-piperidyl]-N-(1H-5-indazolyl)amine], the figure is 821 nM.

`Cc1ccc(CN2CCC(Nc3ccc4[nH]ncc4c3)CC2)cc1` [Example 139, N-(1H-5-Indazolyl)-N-[1-(4-methylbenzyl)-4-piperidyl]amine] showed an IC50 of 250 nM.

These data come from US7217722B2 (Kirin Beer Kabushiki Kaisha, priority 2000, dated 2007).
